Counter-ions that a name gives are not always drawn.
Assay: Solubility of terbinafine hydrochloride
Type: physicochemical
Details: for solubility at 24 h: thermodynamic from solid
Description: Buffer Preparation: Buffers were prepared at 50 mM concentration using ammonium acetate (pHs 4.0 and 10.0) or ammonium phosphate (pHs 6.0, 7.0, and 8.0). Solubility Sample Preparation: 100 to 800 mg terbinafine HCL was transferred to separate 4-mL vials. To each vial, 2 mL of the solvent to be investigated was added. Samples were capped and then rotated for 24 hours at room temperature. The samples were allowed to settle overnight at room temperature. Approximately 0.4 mL of the supernatant was removed and transferred to a 0.45 μm Nylon microcentrifuge filter and clarified. Samples were diluted with 50% methanol to within the calibration range. Sample Analysis: Samples were analyzed by HPLC with five-minute runs.

`CN(C/C=C/C#CC(C)(C)C)Cc1cccc2ccccc12` [Terbinafine, terbinafine hydrochloride] gave a solubility at 24 h (50 mM ammonium acetate buffer pH 4.0, aqueous buffer, solvent pH 4.0 buffer) of 4800 µg/mL, a solubility at 24 h (50 mM ammonium acetate buffer pH 10.0, aqueous buffer, solvent pH 10.0 buffer) of 1500 µg/mL and a solubility at 24 h (50 mM ammonium phosphate buffer pH 6.0, aqueous buffer, solvent pH 6.0 buffer) of 5000 µg/mL. The solubility at 24 h (50 mM ammonium phosphate buffer pH 7.0, aqueous buffer, solvent pH 7.0 buffer) was 20 µg/mL, the solubility at 24 h (50 mM ammonium phosphate buffer pH 8.0, aqueous buffer, solvent pH 8.0 buffer) was 2 µg/mL and the solubility at 24 h (aqueous buffer, solvent PBS pH 5.5) was 700 µg/mL. For the same compound, the Solubility in words (aqueous solvents with pHs of 4 and 6) was “moderate solubility”, the solubility at 24 h (aqueous with cosolvent or surfactant or cyclodextrin, solvent 10% Ethanol) was 7500 µg/mL and the solubility at 24 h (aqueous with cosolvent or surfactant or cyclodextrin, solvent 20% Ethanol) was 11000 µg/mL. The solubility at 24 h (aqueous with cosolvent or surfactant or cyclodextrin, solvent 40% Ethanol) was 53000 µg/mL, the solubility at 24 h (aqueous with cosolvent or surfactant or cyclodextrin, solvent 50% Ethanol) was 119000 µg/mL and the Solubility in words (non-polar solvents such as ethyl acetate and isopropyl myristate) was “lower solubility”. The solubility at 24 h (oil or lipid, solvent Isopropyl myristate) was 30 µg/mL, the solubility at 24 h (organic solvent or mixture, solvent DMSO) was 114000 µg/mL and the solubility at 24 h (organic solvent or mixture, solvent Ethanol) was 172000 µg/mL. For the same compound, the solubility at 24 h (organic solvent or mixture, solvent Isopropanol) was 26300 µg/mL, the Solubility in words (pHs 7, 8, and 10) was “substantially lower solubility” and the Solubility in words (polar organic solvents such as ethanol and DMSO) was “high solubility”. The Solubility (solvent 5% Ethanol) was 6700 µg/mL, the Solubility (solvent Ethyl acetate) was 700 µg/mL and the solubility at 24 h (solvent Water, room temperature) was 5900 µg/mL.

Reference: patent publication US9084754B2, “Highly permeating terbinafine formulation” (NUVO RESEARCH INC., priority 2009, dated 2015)
